Data as given in patent publication US20190240225A1, “COMBINATION OF A BCL-2 INHIBITOR AND A MCL-1 INHIBITOR, USES AND PHARMACEUTICAL COMPOSITIONS THEREOF” (LES LABORATOIRES SERVIER, priority 2016, published 2019).
Like-named read-outs stand apart in the source and are kept apart here.

Tests used:
Type in all cases: cell-based
SU-DHL-6 = assay: CellTiterGlo viability, DLBCL cell line; details: single agent, 2 days; for IC50: read-out: Abs IC50
Description: In addition, all media contained penicillin (100 IU/ml), streptomycin (100 μg/ml) and L-glutamine (2 mM). Unless otherwise mentioned, culture media and supplements were from Amimed/Bioconcept (Allschwil, Switzerland).
Cell lines were cultured at 37° C. in a humidified atmosphere containing 5% CO2 and expanded in T-75 flasks. In all cases cells were thawed from frozen stocks, expanded through ≥1 passage using appropriate dilutions, counted and assessed for viability using a CASY cell counter (Omni Life Science, Bremen, Germany) prior to plating 25 ul/well at the densities indicated in Table 1 into 384-well plates (Corning). All cell lines were determined to be free of mycoplasma contamination by PCR assay performed at Idexx Radii (Columbia, Mo., USA) and misidentification ruled out by assessment of a panel of 48 Small Nucleotide Polymorphisms (SNPs) at Asuragen (Austin, Tex., USA) or in-house.
Stock solutions of compounds were prepared at a concentration of 10 mM in DMSO (Sigma) and stored at −20° C. Where necessary to afford a full dose-response curve, the stock solutions were pre-diluted in DMSO to 1′000-fold the desired start concentration (see Table 2). On the day after cell seeding, eight 2.5-fold serial dilutions of each compound were dispensed, either individually or in all possible permutations in a checkerboard fashion, directly into the cell assay plates using a non-contact 300D Digital Dispenser (ILCAN, Mannedorf, Switzerland) as outlined in FIG. 4. The final concentration of DMSO was 0.2% in all wells.
Effects of the single agents as well as their checkerboard combinations on cell viability were assessed after 2 days of incubation at 37° C./5% CO2 by quantification of cellular ATP levels using CellTiterGlo (Promega, Madison, Wis., USA) at 25 μL reagent/well and n=2 replicate plates per condition. Luminescence was quantified on a M1000 multipurpose platereader (ILCAN, Mannedorf, Switzerland). The number/viability of cells at time of compound addition was likewise assessed and used to assess the degree of the population doubling time of a particular cell line.
Single agent IC50s were calculated using standard four-parametric curve fitting. […] IC50 are defined as the compound concentration at which the CTG signal is reduced to 50% of that measured for the vehicle (DMSO) control.

SK-N-FI = assay: CellTiterGlo viability, neuroblastoma cell line; details: single agent, 2 days
Description: (§1) In addition, all media contained penicillin (100 IU/ml), streptomycin (100 μg/ml) and L-glutamine (2 mM). […] In all cases cells were thawed from frozen stocks, expanded through ≥1 passage using appropriate dilutions, counted and assessed for viability using a CASY cell counter prior to plating 150 ul/well at the densities indicated in Table 6 into 96-well plates. All cell lines were determined to be free of mycoplasma contamination in-house. Stock solutions of compounds were prepared at a concentration of 5 mM in DMSO and stored at −20° C. In order to analyse the activity of the compounds as single agents, cells were seeded and treated with nine 3.16-fold serial dilutions of each compound dispensed individually directly into the cell assay plates. […] Two independent experiments, each one performed in duplicates were performed. […]. Luminescence was quantified on a multipurpose platereader. Single agent IC50s were calculated using standard four-parametric curve fitting. […] Identical experiments were performed to assess potential synergistic interactions between compound combinations. […] All calculations were performed using Chalice TM Bioinformatics Software.

SK-N-BE = assay: CellTiterGlo viability, neuroblastoma cell line; details: single agent, 3 days
Description: as §1

SK-N-DZ = assay: CellTiterGlo viability, neuroblastoma cell line; details: single agent, 3 days
Description: as §1

SIMA = assay: CellTiterGlo viability, neuroblastoma cell line; details: single agent, 3 days
Description: as §1

SK-N-SH = assay: CellTiterGlo viability, neuroblastoma cell line; details: single agent, 2 days
Description: as §1

SH-SY5Y = assay: CellTiterGlo viability, neuroblastoma cell line; details: single agent, 2 days
Description: as §1

LAN-6 = assay: CellTiterGlo viability, neuroblastoma cell line; details: for Max Inh (Compound 3: Mean of Max Inh) / IC50: LAN-6, single agent, 3 days
Description: as §1

SK-N-AS = assay: CellTiterGlo viability, neuroblastoma cell line; details: single agent, 3 days
Description: as §1

NBL-S = assay: CellTiterGlo viability, neuroblastoma cell line; details: single agent, 3 days
Description: as §1

Kelly = assay: CellTiterGlo viability, neuroblastoma cell line; details: single agent, 2 days
Description: as §1

NB1 = assay: CellTiterGlo viability, neuroblastoma cell line; details: single agent, 2 days
Description: as §1

Loucy = assay: CellTiterGlo viability, T-ALL cell line; details: single agent, 48 h
Description: (§2) In addition, all media contained penicillin (100 IU/ml), streptomycin (100 μg/ml) and L-glutamine (2 mM). Cell lines were cultured at 37° C. in a humidified atmosphere containing 5% CO2 and expanded in T-150 flasks. In all cases cells were thawed from frozen stocks, expanded through ≥1 passage using appropriate dilutions, counted and assessed for viability using a CASY cell counter prior to plating 150 ul/well at the densities indicated in Table 9 into 96-well plates. All cell lines were determined to be free of mycoplasma contamination in-house.
(§3) Stock solutions of compounds were prepared at a concentration of 5 mM in DMSO and stored at −20° C. In order to analyse the activity of the compounds as single agents, cells were seeded and treated with nine 2-fold serial dilutions of each compound dispensed individually directly into the cell assay plates. […] All the conditions were tested in triplicates. Luminescence was quantified on a multipurpose plate reader. Single agent IC50s were calculated using standard four-parametric curve fitting. IC50 is defined as the compound concentration at which the CTG signal is reduced to 50% of that measured for the vehicle (DMSO) control.
(§4) In order to analyse the activity of the compounds in combination, cells were seeded and treated with seven or eight 3.16-fold serial dilutions of each compound dispensed, either individually or in all possible permutations in a checkerboard fashion, directly into the cell assay plates as indicated in FIG. 1. […] For B-ALL cell lines, two independent experiments, each one performed in duplicates, were performed. For T-ALL cell lines, one experiment performed in triplicate was performed. Luminescence was quantified on a multipurpose plate reader.
(§5) Potential synergistic interactions between compound combinations were assessed using the Excess Inhibition 2D matrix according to the Loewe additivity model and are reported as Synergy Score (Lehar et al, Nat Biotechnol. 2009 July; 27(7): 659-666). All calculations were performed using Chalice TM Bioinformatics Software available in Horizon website. The doubling time indicated in Table 9 is the mean of the doubling time obtained in the different passages (in T-150 flasks) performed from the thawing of the cells to their seeding in the 96-well plates.

CCRF-CEM = assay: CellTiterGlo viability, T-ALL cell line; details: single agent, 48 h
Description: as §2, §3, §4, §5

J.RT3 T3.5 = assay: CellTiterGlo viability, T-ALL cell line; details: single agent, 48 h
Description: as §2, §3, §4, §5

J45.01 = assay: CellTiterGlo viability, T-ALL cell line; details: single agent, 48 h
Description: as §2, §3, §4, §5

Cl.O=C(c1cc(-c2cc3c(cc2C(=O)N2Cc4ccccc4C[C@H]2CN2CCOCC2)OCO3)n2c1CCCC2)N(c1ccccc1)c1ccc(O)cc1 [Compound 1, HCl, N-(4-hydroxyphenyl)-3-{6-[((3S)-3-(4-morpholinylmethyl)-3,4-dihydro-2(1H)-isoquinolinyl)carbonyl]-1,3-benzodioxol-5-yl}-N-phenyl-5,6,7,8-tetrahydro-1-indolizine carboxamide hydrochloride]
IC50 (SU-DHL-6; Homo sapiens, 48 h): 0.614 µM | Max Inh (SU-DHL-6): 101.0% | IC50 (SK-N-FI; Homo sapiens, 48 h): > 3 µM | Max Inh (Compound 3: Mean of Max Inh) (SK-N-FI): 6% | IC50 (SK-N-BE; Neuroblastoma cell, 72 h): > 2 µM | Max Inh (Compound 3: Mean of Max Inh) (SK-N-BE): 27% | IC50 (SK-N-DZ; Homo sapiens, 72 h): > 2 µM | Max Inh (Compound 3: Mean of Max Inh) (SK-N-DZ): 10% | IC50 (SIMA; Neuroblastoma cell, 72 h): > 2 µM | Max Inh (Compound 3: Mean of Max Inh) (SIMA): 48.5% | IC50 (SK-N-SH; Homo sapiens, 48 h): > 3 µM | Max Inh (Compound 3: Mean of Max Inh) (SK-N-SH): 15% | IC50 (SH-SY5Y; Homo sapiens, 48 h): > 3 µM | Max Inh (Compound 3: Mean of Max Inh) (SH-SY5Y): 10% | Max Inh (Compound 3: Mean of Max Inh) (LAN-6): 26% | IC50 (LAN-6; Neuroblastoma cell, 72 h): > 2 µM | inhibition at 0.63 µM (LAN-6; Neuroblastoma cell, LAN-6 cells, each compound at 630 nM (FIG. 10, upper left panel), read-out: growth inhibition): 0% | IC50 (SK-N-AS; Homo sapiens, 72 h): > 1 µM | Max Inh (Compound 3: Mean of Max Inh) (SK-N-AS): 9% | IC50 (NBL-S; Neuroblastoma cell, 72 h): > 2 µM | Max Inh (Compound 3: Mean of Max Inh) (NBL-S): 10% | IC50 (Kelly; 48 h): > 3 µM | Max Inh (Compound 3: Mean of Max Inh) (Kelly): 27% | IC50 (NB1; Homo sapiens, 48 h): > 3 µM | Max Inh (Compound 3: Mean of Max Inh) (NB1): 11% | IC50 (Loucy): 0.231 µM | IC50 (CCRF-CEM; Homo sapiens): 7.5 µM | IC50 (J.RT3 T3.5; Homo sapiens): 10 µM | IC50 (J45.01): 9 µM

COc1ccccc1-c1nccc(COc2ccccc2C[C@@H](Oc2ncnc3sc(-c4ccc(F)cc4)c(-c4ccc(OCCN5CCN(C)CC5)c(Cl)c4C)c23)C(=O)O)n1 [Compound 3, (2R)-2-{[(5Sa)-5-{3-chloro-2-methyl-4-[2-(4-methylpiperazin-1-yl)ethoxy]phenyl}-6-(4-fluorophenyl)thieno[2,3-d]pyrimidin-4-yl]oxy}-3-(2-{[2-(2-methoxyphenyl)pyrimidin-4-yl]methoxy}phenyl)propanoic acid]
Max Inh (SU-DHL-6): 99.1% | IC50 (SU-DHL-6): 0.00213 µM | IC50 (SK-N-FI): > 3 µM | Max Inh (Compound 3: Mean of Max Inh) (SK-N-FI): 33% | IC50 (SK-N-BE): > 2 µM | Max Inh (Compound 3: Mean of Max Inh) (SK-N-BE): 27% | IC50 (SK-N-DZ): > 2 µM | Max Inh (Compound 3: Mean of Max Inh) (SK-N-DZ): 2.5% | IC50 (SIMA): > 2 µM | Max Inh (Compound 3: Mean of Max Inh) (SIMA): 0% | IC50 (SK-N-SH): > 3 µM | Max Inh (Compound 3: Mean of Max Inh) (SK-N-SH): 40% | IC50 (SH-SY5Y): > 3 µM | Max Inh (Compound 3: Mean of Max Inh) (SH-SY5Y): 24% | IC50 (LAN-6): > 2 µM | Max Inh (Compound 3: Mean of Max Inh) (LAN-6): 17.5% | growth inhibition (LAN-6; LAN-6 cells, each compound at 630 nM (FIG. 10, upper left panel)): 12% | IC50 (SK-N-AS): 0.26 µM | Max Inh (Compound 3: Mean of Max Inh) (SK-N-AS): 84% | IC50 (NBL-S): > 2 µM | Max Inh (Compound 3: Mean of Max Inh) (NBL-S): 13% | IC50 (Kelly): 0.031 µM | Max Inh (Compound 3: Mean of Max Inh) (Kelly): 99% | IC50 (NB1): 0.123 µM | Max Inh (Compound 3: Mean of Max Inh) (NB1): 99% | IC50 (Loucy): 0.064 µM | IC50 (CCRF-CEM): 0.047 µM | IC50 (J.RT3 T3.5): 0.063 µM | IC50 (J45.01): 0.029 µM
